Test [1] addresses T1, PI3Kα (wild-type), P110/P85α (Homo sapiens, UniProt P42336).
T1 construct: made in house; host or cells: SF9 insect cells
The test is described as follows: PI3 Kinase TR-FRET assay, PI3Kα (wild-type). It is filed as biochemical. In short, it runs like this:
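Sf9-expressed His-purified P110/P85α (5 ng) preincubated 60 min RT with compound and PIP2 in buffer with 40 mM MgCl2, 5 mM DTT; reaction started with ATP (PIP2 and ATP both 10 μM), 30 min RT. PIP3 detected by TR-FRET displacement, 665/615 nm ratio; IC50 from dose-response curves.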
(In general: TR-FRET usually uses a lanthanide donor and a delayed reading to cut background.)

The target of the next test is T2, mTOR kinase (Homo sapiens, UniProt P42345).
T2 construct: purchased Millipore, USA
Put plainly: mTOR kinase TR-FRET assay. The conditions noted are these: read-out: mTO R. It is filed as biochemical. The procedure, abridged:
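Compounds preincubated 60 min with mTOR (5 ng) in HEPES pH 7.5, EGTA, MnCl2; ULight-p70 S6K Thr389 peptide (50 nM) and ATP (20 μM) then added, 60 min at room temperature. EDTA-stopped, Eu-anti-phospho antibody detection by TR-FRET (665/615 nm); IC50 from variable-slope sigmoidal fit.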

Bounds are passed on as bounds.

T1 sequence (P42336 whole entry): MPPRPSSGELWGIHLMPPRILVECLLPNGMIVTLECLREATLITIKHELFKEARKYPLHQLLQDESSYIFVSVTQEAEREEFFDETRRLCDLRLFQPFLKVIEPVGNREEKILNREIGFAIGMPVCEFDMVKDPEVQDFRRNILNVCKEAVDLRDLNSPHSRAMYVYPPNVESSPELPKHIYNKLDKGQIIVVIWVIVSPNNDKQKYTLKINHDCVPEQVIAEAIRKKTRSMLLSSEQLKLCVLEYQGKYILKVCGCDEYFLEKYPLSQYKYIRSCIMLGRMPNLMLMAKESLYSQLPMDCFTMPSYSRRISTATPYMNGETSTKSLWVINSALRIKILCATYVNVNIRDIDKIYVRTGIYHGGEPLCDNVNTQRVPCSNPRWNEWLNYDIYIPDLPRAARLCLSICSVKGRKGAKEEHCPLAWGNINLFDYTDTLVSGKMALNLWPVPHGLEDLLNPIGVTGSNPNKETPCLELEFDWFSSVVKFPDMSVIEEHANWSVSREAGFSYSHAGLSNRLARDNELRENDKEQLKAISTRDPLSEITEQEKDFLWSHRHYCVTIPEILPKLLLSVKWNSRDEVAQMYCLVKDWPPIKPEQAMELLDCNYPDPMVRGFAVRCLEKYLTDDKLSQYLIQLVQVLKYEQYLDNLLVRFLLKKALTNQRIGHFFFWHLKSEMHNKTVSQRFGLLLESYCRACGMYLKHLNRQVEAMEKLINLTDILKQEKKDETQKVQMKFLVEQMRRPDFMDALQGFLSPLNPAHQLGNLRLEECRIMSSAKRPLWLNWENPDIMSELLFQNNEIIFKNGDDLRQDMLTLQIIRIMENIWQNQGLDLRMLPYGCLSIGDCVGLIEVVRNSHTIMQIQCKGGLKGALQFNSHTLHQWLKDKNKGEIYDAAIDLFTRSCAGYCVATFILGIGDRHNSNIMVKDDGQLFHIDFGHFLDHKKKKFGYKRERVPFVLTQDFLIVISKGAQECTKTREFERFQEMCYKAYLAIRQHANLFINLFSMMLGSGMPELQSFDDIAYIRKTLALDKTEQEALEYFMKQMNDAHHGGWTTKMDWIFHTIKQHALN
T1 sequence (P27986 whole entry partner): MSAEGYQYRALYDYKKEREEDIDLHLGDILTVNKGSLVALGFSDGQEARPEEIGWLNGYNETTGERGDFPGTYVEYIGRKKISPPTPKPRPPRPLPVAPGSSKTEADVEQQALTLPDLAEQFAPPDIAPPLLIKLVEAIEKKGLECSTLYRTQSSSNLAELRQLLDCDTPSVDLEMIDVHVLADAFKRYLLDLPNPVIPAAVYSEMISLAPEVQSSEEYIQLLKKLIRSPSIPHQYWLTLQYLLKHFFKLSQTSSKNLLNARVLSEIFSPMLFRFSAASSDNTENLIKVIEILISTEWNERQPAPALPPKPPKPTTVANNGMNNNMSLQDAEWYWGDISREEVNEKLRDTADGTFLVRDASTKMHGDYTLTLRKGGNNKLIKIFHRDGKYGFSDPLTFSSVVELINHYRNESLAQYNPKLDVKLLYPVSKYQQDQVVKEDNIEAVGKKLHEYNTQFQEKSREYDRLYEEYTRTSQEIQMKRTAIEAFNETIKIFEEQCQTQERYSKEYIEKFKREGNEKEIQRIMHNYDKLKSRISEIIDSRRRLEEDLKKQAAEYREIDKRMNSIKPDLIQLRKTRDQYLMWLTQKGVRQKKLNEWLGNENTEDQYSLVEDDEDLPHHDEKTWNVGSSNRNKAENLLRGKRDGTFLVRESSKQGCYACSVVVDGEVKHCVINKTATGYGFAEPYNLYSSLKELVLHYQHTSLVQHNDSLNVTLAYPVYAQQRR

For `CN(C)C(=O)c1ccc(NC(=O)Nc2ccc(-c3nc(N4CCOCC4)c4cc(F)c(-c5cncnc5)cc4n3)cn2)cc1` [Example 176, 4-(3-(5-(6-fluoro-4-morpholino-7-(pyrimidin-5-yl)quinazolin-2-yl)pyridin-2-yl)ureido)-N,N-dimethyl-benzamide], the IC50 in test [1] was less than 0.05 µM; on mTOR kinase, 0.05 to 0.2 µM.

In the case of `CN(C)C(=O)c1ccc(NC(=O)Nc2ccc(-c3nc(N4CCOCC4)c4ccc(-c5ccc(N)nc5)cc4n3)cc2)cc1` [Example 177, 4-(3-(4-(7-(6-aminopyridin-3-yl)-4-morpholino-quinazolin-2-yl)phenyl)ureido)-N,N-dimethyl-benzamide], the IC50 (in test [1]; at mTOR kinase) was less than 0.05 µM in each case.

`CN(C)C(=O)c1ccc(NC(=O)Nc2ccc(-c3nc(N4CCOCC4)c4ccc(-c5ccc(N)nc5)cc4n3)cc2)c(F)c1` [Example 178, 4-(3-(4-(7-(6-aminopyridin-3-yl)-4-morpholino-quinazolin-2-yl)phenyl)ureido)-3-fluoro-N,N-dimethyl-benzamide]: the IC50 is 0.05 to 0.2 µM in test [1] and less than 0.05 µM on mTOR kinase.

As for `COc1ccc2c(N3CCOCC3)nc(-c3ccc(NC(=O)Nc4ccc(C(=O)N(C)C)cc4)c(F)c3)nc2c1` [Example 182, 4-(3-(2-fluoro-4-(7-methoxy-4-morpholino-quinazolin-2-yl)phenyl)ureido)-N,N-dimethyl-benzamide], the IC50 is 0.05 to 0.2 µM in test [1] and less than 0.05 µM at mTOR kinase.

In the case of `CN(C)CCNC(=O)c1ccc(NC(=O)Nc2ccc(-c3nc(N4CCOCC4)c4ccc(-c5cncnc5)cc4n3)cc2)cc1` [Example 192, N-(2-(dimethylamino)ethyl)-4-(3-(4-(4-morpholino-7-(pyrimidin-5-yl)quinazolin-2-yl)phenyl)ureido)-benzamide], the IC50 in test [1] is 0.05 to 0.2 µM; on mTOR kinase, less than 0.05 µM.

Turning to `CN1CCN(C(=O)c2ccc(NC(=O)Nc3ccc(-c4nc(N5CCOCC5)c5ccc(-c6ccncc6)cc5n4)cc3F)cc2)CC1` [Example 212, 1-(2-fluoro-4-(4-morpholino-7-(pyridin-4-yl)quinazolin-2-yl)phenyl)-3-(4-(4-methylpiperazine-1-carbonyl)phenyl)urea], the IC50 (in test [1]; at mTOR kinase) was 0.05 to 0.2 µM each time.

Regarding `CN(C)C(=O)c1ccc(NC(=O)Nc2ccc(-c3nc(N4CCOCC4)c4ncc(-c5ccc(CO)o5)cc4n3)cc2F)cc1` [Example 218, 4-(3-(2-fluoro-4-(7-(5-(hydroxymethyl)furan-2-yl)-4-morpholino-pyrido[3,2-d]pyrimidin-2-yl)phenyl)ureido)-N,N-dimethyl-benzamide], the IC50 in test [1] is less than 0.05 µM; on mTOR kinase, 0.05 to 0.2 µM.

`CN(C)C(=O)c1ccc(NC(=O)Nc2ccc(-c3nc(N4CCOCC4)c4ccc(-c5ccc(CO)o5)cc4n3)cc2)c(F)c1` [Example 219, 3-fluoro-4-(3-(4-(7-(5-(hydroxymethyl)furan-2-yl)-4-morpholino-quinazolin-2-yl)phenyl)ureido)-N,N-dimethyl-benzamide]: the IC50 (in test [1]; at mTOR kinase) was 0.05 to 0.2 µM throughout.

As to `CN(C)CCNC(=O)c1ccc(-c2ccc3c(N4CCOCC4)nc(-c4ccc(NC(=O)Nc5ccc(C(=O)N(C)C)cc5)cc4)nc3c2)o1` [Example 225, N-(2-(dimethylamino)ethyl)-5-(2-(4-(3-(4-(dimethylcarbamoyl)phenyl)ureido)phenyl)-4-morpholino-quinazolin-7-yl)furan-2-carboxamide], the results for the IC50 (in test [1]; on mTOR kinase) were 0.05 to 0.2 µM and less than 0.05 µM, respectively.

As for `CC(O)c1ccc(-c2ccc3c(N4CCOCC4)nc(-c4ccc(NC(=O)Nc5ccc(C(=O)N(C)C)cc5F)cc4)nc3c2)o1` (centres unmarked) [Example 227, 3-fluoro-4-(3-(4-(7-(5-(1-hydroxyethyl)furan-2-yl)-4-morpholino-quinazolin-2-yl)phenyl)ureido)-N,N-dimethyl-benzamide], the results for the IC50 (in test [1]; on mTOR kinase) were 0.201 to 10 µM and 0.05 to 0.2 µM, respectively.

Regarding `CN(C)C(=O)c1ccc(NC(=O)Nc2ccc(-c3nc(N4CCOCC4)c4ccc(-c5ccc(C(=O)N(C)C)o5)cc4n3)cc2)cc1` [Example 229, 5-(2-(4-(3-(4-(dimethylcarbamoyl)phenyl)ureido)phenyl)-4-morpholine-quinazolin-7-yl)-N,N-dimethylfuran-2-carboxamide], the IC50 (in test [1]; at mTOR kinase) was less than 0.05 µM in each case.

For `CN(C)C(=O)c1ccc(NC(=O)Nc2ccc(-c3nc(N4CCOCC4)c4ncc(-c5cnc(N(C)C)nc5)cc4n3)cc2)cc1` [Example 230, 4-(3-(4-(7-(2-(dimethylamino)pyrimidin-5-yl)-4-morpholino-pyrido[3,2-d]pyrimidin-2-yl)phenyl)ureido)-N,N-dimethyl-benzamide], the IC50 (in test [1]; on mTOR kinase) was less than 0.05 µM in each case.

With `CN(C)C(=O)c1ccc(NC(=O)Nc2ccc(-c3nc(N4CCOCC4)c4ccc(-c5cnc(N(C)C)nc5)cc4n3)cc2F)cc1` [Example 231, 4-(3-(4-(7-(2-(dimethylamino)pyrimidin-5-yl)-4-morpholino-quinazolin-2-yl)-2-fluorophenyl)ureido)-N,N-dimethyl-benzamide], the IC50 is 0.05 to 0.2 µM in test [1] and less than 0.05 µM on mTOR kinase.

For the compound `O=C(Nc1ccc(C(=O)N2CCC(O)C2)cc1)Nc1ccc(-c2nc(N3CCOCC3)c3ccc(-c4ccco4)cc3n2)cc1` (centres unmarked) [Example 232, 1-(4-(7-(furan-2-yl)-4-morpholino-quinazolin-2-yl)phenyl)-3-(4-(3-hydroxypyrrolidine-1-carbonyl)phenyl)urea], the IC50 (in test [1]; at mTOR kinase) was less than 0.05 µM in each case.

For the compound `CN(C)CCNC(=O)c1ccc(NC(=O)Nc2ccc(-c3nc(N4CCOCC4)c4ccc(-c5ccco5)cc4n3)cc2)cc1` [Example 235, N-(2-(dimethylamino)ethyl)-4-(3-(4-(7-(furan-2-yl)-4-morpholino-quinazolin-2-yl)phenyl)ureido)-benzamide], the IC50 (in test [1]; at mTOR kinase) was less than 0.05 µM in each case.

On to `CN(C)CCN(C)C(=O)c1ccc(NC(=O)Nc2ccc(-c3nc(N4CCOCC4)c4ccc(-c5ccco5)cc4n3)cc2)cc1` [Example 236, N-(2-(dimethylamino)ethyl)-4-(3-(4-(7-(furan-2-yl)-4-morpholino-quinazolin-2-yl)phenyl)ureido)-N-methyl-benzamide], for which the IC50 (in test [1]; on mTOR kinase) was less than 0.05 µM in each case.

Take `Cc1ccc(-c2ccc3c(N4CCOCC4)nc(-c4ccc(NC(=O)Nc5ccc(C(=O)N(C)C)cc5)cc4F)nc3c2)o1` [Example 239, 4-(3-(3-fluoro-4-(7-(5-methylfuran-2-yl)-4-morpholino-quinazolin-2-yl)phenyl)ureido)-N,N-dimethyl-benzamide]: the IC50 (in test [1]; on mTOR kinase) was 0.05 to 0.2 µM each time.

Consider `CN(C)C(=O)c1ccc(NC(=O)Nc2ccc(-c3nc(N4CCOCC4)c4ncc(-c5cccnc5F)cc4n3)cc2)cc1F` [Example 248, 2-fluoro-4-(3-(4-(7-(2-fluoropyridin-3-yl)-4-morpholino-pyrido[3,2-d]pyrimidin-2-yl)phenyl)ureido)-N,N-dimethyl-benzamide], for which the IC50 (in test [1]; at mTOR kinase) was less than 0.05 µM each time.

With `CN(C)C(=O)c1ccc(NC(=O)Nc2ccc(-c3nc(N4CCOCC4)c4ccc(-c5cnn(C)c5)cc4n3)c(F)c2)cc1` [Example 249, 4-(3-(3-fluoro-4-(7-(1-methyl-1H-pyrazol-4-yl)-4-morpholino-quinazolin-2-yl)phenyl)ureido)-N,N-dimethyl-benzamide], the IC50 was 0.05 to 0.2 µM in test [1] and less than 0.05 µM at mTOR kinase.

With `CN(C)C(=O)c1ccc(NC(=O)Nc2ccc(-c3nc(N4CCOCC4)c4ccc(-c5cncnc5)cc4n3)c(F)c2)cn1` [Example 251, 5-(3-(3-fluoro-4-(4-morpholino-7-(pyrimidin-5-yl)quinazolin-2-yl)phenyl)ureido)-N,N-dimethylpicolinamide], the results for the IC50 (in test [1]; at mTOR kinase) were 0.201 to 10 µM and less than 0.05 µM, respectively.

Take `Cc1noc(C)c1-c1ccc2c(N3CCOCC3)nc(-c3ccc(NC(=O)Nc4ccc(C(=O)N(C)C)cc4)cc3F)nc2c1` [Example 252, 4-(3-(4-(7-(3,5-dimethylisoxazol-4-yl)-4-morpholino-quinazolin-2-yl)-3-fluorophenyl)ureido)-N,N-dimethyl-benzamide]: the IC50 (in test [1]; at mTOR kinase) was 0.05 to 0.2 µM each time.

On to `CC1CN(c2nc(-c3ccc(NC(=O)Nc4ccc(C(=O)N(C)C)cc4)cc3F)nc3cc(-c4cncnc4)ccc23)CCO1` (centres unmarked) [Example 254, 4-(3-(3-fluoro-4-(4-(2-methylmorpholino)-7-(pyrimidin-5-yl)quinazolin-2-yl)phenyl)ureido)-N,N-dimethyl-benzamide], for which the IC50 in test [1] is 0.201 to 10 µM; at mTOR kinase, 0.05 to 0.2 µM.

In the case of `COc1ccc(-c2ccc3c(N4CCOCC4)nc(-c4ccc(NC(=O)Nc5ccc(C(=O)N(C)C)cc5)cc4F)nc3c2)cn1` [Example 258, 4-(3-(3-fluoro-4-(7-(6-methoxypyridin-3-yl)-4-morpholino-quinazolin-2-yl)phenyl)ureido)-N,N-dimethyl-benzamide], the IC50 (in test [1]; at mTOR kinase) was 0.05 to 0.2 µM in each case.

For `CN(C)C(=O)c1ccc(NC(=O)Nc2ccc(-c3nc(N4CCOCC4)c4ncc(-c5cccnc5)cc4n3)c(F)c2)cc1` [Example 261, 4-(3-(3-fluoro-4-(4-morpholino-7-(pyridin-3-yl)pyrido[3,2-d]pyrimidin-2-yl)phenyl)ureido)-N,N-dimethyl-benzamide], the IC50 (in test [1]; at mTOR kinase) was less than 0.05 µM in each case.

With `CN(C)C(=O)c1ccc(NC(=O)Nc2ccc(-c3nc(N4CCOCC4)c4ncc(-c5cncnc5)cc4n3)cc2)cc1F` [Example 262, 2-fluoro-N,N-dimethyl-4-(3-(4-(4-morpholino-7-(pyrimidin-5-yl)pyrido[3,2-d]pyrimidin-2-yl)phenyl)ureido)-benzamide], the IC50 (in test [1]; on mTOR kinase) was less than 0.05 µM each time.

(Values after US9115092B2, “Substituted quinazoline and pyrido-pyrimidine derivatives” (Asana Biosciences, LLC, priority 2010, dated 2015).)
